The results in this text go back to US10231980B2, “Cortexolone 17alpha-benzoate for use in the treatment of tumours” (COSMO TECHNOLOGIES LTD., priority 2014, dated 2019).

One series has as its system stimulated PBMC. As to the kind of experiment: IC50 on stimulated (actively dividing) PBMC. The series is classed as cell-based, human. Conditions: PBMC Stim; Table IV.
Another series has as its system HT29. The series can be described thus: MTT colorimetric assay on epithelial intestinal cancer cells. The series is classed as cell-based. The note with it: for IC50: Homo sapiens, HT-29, HT29. The protocol: The experiment was performed to test and define anticancer activity in vitro of Cortexolone 17α-benzoate and cortexolone 17α-valerate, 21-propionate on cell lines representatives of epithelial intestinal tumours, namely HT29. The experiment method consisted in: • 1. Monolayer HT-29 cells were plated in: 96-wells plates at the density of 2×10^4 cells/mL. The cells plated were kept at 37° C. in 5% CO2 and left to attach for 24 h. • 2. […] After 72 h of treatment, the MTT colorimetric assay was performed.
In general terms: Tetrazolium assays rely on reduction of a dye to a coloured formazan, in cell work by metabolically active cells.

The test system of another series is LNCaP. The series can be described thus: ATP-dependent cell viability assay (Cell Titer Glo), Example 12. Conditions: for IC50: Homo sapiens, LNCaP. From the text: (§1) Data shown in Table I were fitted through sigmoidal dose response curves and analyzed using Prizm statistical.
(ATP-based viability assays read luminescence as a measure of living cells.)

Another series deals with MiaPaca2. The description is as above. Conditions: human, 3 days.
Excerpt: as §1

The subject of a further series is PC3. The series is described as above. Conditions: for IC50: Homo sapiens.
Excerpt: as §1

For a further series, the system named is Panc1. Described as above. The note with it: human, 3 days.
Excerpt: as §1

For series [1], the system named is caspases 8, 9, 3/7 in MiaPaca2 cells. The series can be described thus: Caspase 8, 9 and 3/7 activity. The series is classed as cell-based.
Method: To better analyze the phenomenon, the enzymatic activity of Caspase 8 (initiator caspase for Extrinsic Pathway) and Caspase 9 (initiator caspase for Intrinsic Pathway) and of Caspases 3 and 7 (effector caspases) were measured.
Gemcitabine (a known pancreatic cancer chemotherapeutic agent) and DMSO were used as positive and negative controls, respectively. There were three incubation time points: 8 hours, 24 hours, and 48 hours. After each time point, cells were lysed in multiplex buffer containing the caspase 3/7 substrate combined with either caspase 8 or caspase 9 reagents, which contain stable luciferase in proprietary buffers. The lysates were transferred to white opaque 96-well plates before measuring luminescence on a Tecan Safire instrument. Parallel plates treated identically were used to determine cell viability. All caspase activities were corrected for the number of viable cells.
Another series has as its system 7 cancer cell lines. As to the kind of experiment: Therapeutic index over a panel of cancer cell lines. The series is classed as cell-based. Conditions: average over the cancer cell lines of Table VII. As for the experimental part:
The compound toxicity was determined as follow:
Therapeutic Index=Safety/Potency=IC50 stimulated PBMC/IC50 cancer cell

In a further series the test system is MCF7. The series can be described thus: In vitro proliferation / cytotoxic assay on breast cancer cells (Examples 14, 25). The note with it: for effect on viability, in words: MCF7. The protocol: as §1
(§2) For the cytotoxic assay, cells were seeded in 96-well flat bottom culture plates in media containing charcoal stripped serum. After 24 hours, test compounds were added to the cells. DMSO was used as the vehicle negative control and RU486 as the positive control. After 72 hour incubation, cells were harvested and lysed to determine cell viability using the Cell Titer Glow assay.

The next series deals with MDA-MB-231. The description is as above. The series is classed as cell-based. Conditions: Homo sapiens; MDA-MB-231; at 100 μM; read-out: maximum inhibition of viability. The protocol:
as §1, §2

Where two headings read alike, the source gives them in different places.

For `CCCCC(=O)O[C@]1(C(=O)CO)CC[C@H]2[C@@H]3CCC4=CC(=O)CC[C@]4(C)[C@H]3CC[C@@]21C` [CB-03-05, cortexolone 17α-valerate], the “Therapeutic Index = IC50 resting PBMC/IC50 cancer cell” value amounted to 1 in the series on stimulated PBMC; 4 in the series on HT29 (human, 72 h); 4 in the series on LNCaP (human, 3 days); 2 with MiaPaca2; 1 in the series with PC3 (human, 3 days); 2 in the series with Panc1. Further, the “Therapeutic Index = IC50 resting PBMC/IC50 cancer cell” value in the series with MCF7 (human, 3 days) was 3. Also, the IC50 with HT29 (Table III, read-out: in vitro proliferation IC50) is 35 µM; in the series with HT29 (Table IV, read-out: In vitro proliferation IC50), 35 µM; with LNCaP, 32 µM; in the series with LNCaP (72 h), 32 µM; in the series on LNCaP (read-out: In vitro proliferation IC50), 32 µM; with LNCaP (read-out: in vitro proliferation IC50), 32 µM. Further, the IC50 in the series with PC3 (PC-3, 72 h, PC3, Tables I and II, titrated 3 uM to 200 uM, 3 days) worked out at 170 µM; with PC3 (PC-3, read-out: In vitro proliferation IC50, PC3, Table IV) it was 170 µM; in the series on PC3 (PC-3, read-out: in vitro proliferation IC50, PC3, Table III) it was 170 µM. The “Therapeutic Index = IC50 stimulated PBMC/IC50 cancer cell” value with HT29 (human, 72 h) was determined as 4; in the series on LNCaP (human, 3 days), 4; in the series on MiaPaca2 it was 2; in the series with PC3 (human, 3 days) it was 1; in the series with Panc1, 2; in the series on MCF7 (human, 3 days), 3. Further, in [1], the “profile for caspase activation” value is “does not show a good profile for caspase activation”. In the series with 7 cancer cell lines, the “Therapeutic Index = IC50 stimulated PBMC/IC50 cancer cell, AVERAGE” value turned out to be 3. In the series on MCF7, the “effect on viability, in words” value is “only active in MCF7”.

In the case of `CC#C[C@]1(O)CC[C@H]2[C@@H]3CCC4=CC(=O)CCC4=C3[C@@H](c3ccc(N(C)C)cc3)C[C@@]21C` [RU486, Mifepristone, reference compound], the cytotoxicity at 100 µM in the series on MDA-MB-231 turned out to be 25%. The “effect on viability, in words” value in the series with MCF7 is listed as “does not affect”. The IC50 result with MCF7 (MCF7 (ER+PR+GR+/−), 72 hour, Table VI) is listed as “Not active”.
